In patent US20220289794A1, “SYNTHETIC ANTIMICROBIAL PEPTIDES” (priority 2019, published 2022):

Tests used:
[1] = system: B. subtilis (ATCC-6633); assay: Broad-spectrum activity against Gram-Positive bacteria (MIC); format: cell-based; parameters: unit not given here
[2] = system: E. coli (ATCC BAA-2452); assay: Broad-spectrum activity against Gram-Negative bacteria (MIC); format: cell-based; settings: Table 16, Gram-negative panel
[3] = system: B. cereus (ATCC-13061); assay: Broad-spectrum activity against Gram-Positive bacteria (MIC); format: cell-based; parameters: unit not given here
[4] = system: A. baumannii (ATCC BAA-1605); assay: Broad-spectrum activity against Gram-Negative bacteria (MIC); format: cell-based; settings: Table 16, Gram-negative panel
[5] = system: P. aeruginosa (ATCC 10145); assay: as above; format: cell-based; settings: Table 16, Gram-negative panel
[6] = system: P. aeruginosa (ATCC BAA-1744); assay: as above; format: cell-based; settings: Table 16, Gram-negative panel
[7] = system: Methicillin-resistant Staphylococcus aureus MRSA (ATCC BAA-1556); settings: MRSA ATCC BAA-1556
[8] = system: S. aureus ATCC 29213; settings: S. aureus ATCC 29213
[9] = system: Pseudomonas aeruginosa (ATCC 27883); settings: P. aeruginosa ATCC 27883
[10] = system: Escherichia coli (ATCC 25922); settings: E. coli ATCC 25922
[11] = system: Klebsiella pneumoniae (ATCC BAA-1705); settings: Table 16, Gram-negative panel
[12] = system: Enterococcus faecium ATCC 27270; settings: E. faecium ATCC 27270
[13] = system: Enterococcus faecium ATCC 700221; settings: E. faecium ATCC 700221
[14] = system: Klebsiella pneumoniae ATCC 13883; settings: Table 16, Gram-negative panel
[15] = system: Enterococcus faecalis ATCC 29212; settings: E. faecalis ATCC 29212
[16] = system: Enterococcus faecalis ATCC 51575; settings: E. faecalis ATCC 51575
[17] = system: Streptococcus pneumoniae ATCC 49619; settings: S. pneumoniae ATCC 49619
[18] = system: Streptococcus pneumoniae ATCC 51938; settings: S. pneumoniae ATCC 51938

| Substance | Broad-spectrum activity B. subtilis (ATCC-6633) [1] | MIC E. coli (ATCC BAA-2452) [2] | Broad-spectrum activity B. cereus (ATCC-13061) [3] | MIC A. baumannii (ATCC BAA-1605) [4] | MIC P. aeruginosa (ATCC 10145) [5] | MIC P. aeruginosa (ATCC BAA-1744) [6] | MIC MRSA ATCC BAA-1556 [7] | MIC S. aureus ATCC 29213 [8] | MIC P. aeruginosa ATCC 27883 [9] | MIC E. coli ATCC 25922 [10] | MIC K. pneumonia (ATCC BAA-1705) [11] | Broad-spectrum activity E. faecium (ATCC 27270) [12] | Broad-spectrum activity E. faecium (ATCC 700221) [13] | MIC K. pneumonia (ATCC 13883) [14] | Broad-spectrum activity E. faecalis (ATCC 29212) [15] | Broad-spectrum activity E. faecalis (ATCC 51575) [16] | Broad-spectrum activity S. pneumoniae (ATCC 49619) [17] | Broad-spectrum activity S. pneumoniae (ATCC 51938) [18] |
| --- | --- | --- | --- | --- | --- | --- | --- | --- | --- | --- | --- | --- | --- | --- | --- | --- | --- | --- |
| c[Arg-Arg-Arg-Arg-Dip-Trp-dip] [IFX-088] | 1.5 | 12.5 µg/mL | 6.2 | 12.5 µg/mL | 25 µg/mL | 50 µg/mL | 3.1 µg/mL | 3.1 µg/mL | 12.5 µg/mL | 12.5 µg/mL | 25 µg/mL | 3.1 | 12.5 | 50 µg/mL | 12.5 | 12.5 | 25 | 12.5 |
| c[arg-arg-arg-arg-dip-trp-dip] [IFX-101] | 1.5 | 25 µg/mL | 6.2 | 12.5 µg/mL | 50 µg/mL | 25 µg/mL | 3.1 µg/mL | 3.1 µg/mL | 25 µg/mL | 12.5 µg/mL | 25 µg/mL | 3.1 | 12.5 | > 50 µg/mL | 12.5 | 12.5 | 50 | 12.5 |
| c[arg-arg-arg-arg-dip-dip-dip] [IFX-067] | 1.5 | 12.5 µg/mL | 3.1 | 12.5 µg/mL | 50 µg/mL | 25 µg/mL | 1.5 µg/mL | 3.1 µg/mL | 12.5 µg/mL | 6.2 µg/mL | 25 µg/mL | 3.1 | 3.1 | > 50 µg/mL | 6.2 | 6.2 | 25 | 12.5 |
| c[arg-arg-Arg-Arg-naI-Trp-naI] [IFX-136] | 1.5 | 12.5 µg/mL | 3.1 | 12.5 µg/mL | 50 µg/mL | 25 µg/mL | 3.1 µg/mL | 1.5 µg/mL | 32 µg/mL | 16 µg/mL | 25 µg/mL | 3.1 | 3.1 | 50 µg/mL | 6.2 | 6.2 | 25 | 12.5 |
| c[Arg-Arg-Arg-Arg-dip-Dip-Dip] [IFX-062] | 1.5 | 6.2 µg/mL | 3.1 | 6.2 µg/mL | 25 µg/mL | 12.5 µg/mL | 3.1 µg/mL | 3.1 µg/mL | 6.2 µg/mL | 12.5 µg/mL | 12.5 µg/mL | 3.1 | 3.1 | 50 µg/mL | 6.2 | 12.5 | 50 | 12.5 |
